For five molecules, TGI results are on record in PubChem BioAssay (NCI).

The structures appear in SMILES notation.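 Test compounds were applied to cells in 96-well plates for 48 hours at 5 doses. TGI: concentration producing complete growth inhibition.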

Among the test systems are CAKI-1 renal; HOP-92 NSCLC; RPMI-8226 leukemia; K-562 leukemia; HT29 colon; HL-60(TB) leukemia; NCI-H23 lung; OVCAR-3 ovarian; HCT-15 colon; DMS 273 small cell lung.
Experiment in all cases: NCI tumour cell line growth inhibition, 48 h

As for `N#CCCN(c1ccc(-c2nnc(NC(=O)CNNC(=O)CC(=O)Nc3ccccc3)s2)cc1)S(=O)(=O)c1ccccc1`, the TGI in the assay with CAKI-1 renal, in the assay on HOP-92 NSCLC, with RPMI-8226 leukemia, with K-562 leukemia, in the assay with HT29 colon and in the assay with HL-60(TB) leukemia was above 100 µM in each case. Also, the TGI in the assay on NCI-H23 lung, in the assay on OVCAR-3 ovarian, in the assay with HCT-15 colon and in the assay on DMS 273 small cell lung was above 100 µM each time.

Turning to `COc1ccc(/C=C2\CCC(C)(CN(C)C)C2=O)cc1` (stereo not given), the TGI with CAKI-1 renal, with HOP-92 NSCLC, in the assay with RPMI-8226 leukemia, with K-562 leukemia, with HT29 colon and in the assay on HL-60(TB) leukemia was above 100 µM in each case. For the same molecule, the TGI in the assay on NCI-H23 lung, in the assay with OVCAR-3 ovarian, with HCT-15 colon and in the assay with DMS 273 small cell lung was above 100 µM each time.

For the molecule `Cc1ccccc1C(C#N)C(=O)C(=O)Nc1cccc(Cl)c1` (stereo not given), the TGI was above 100 µM in the assay with CAKI-1 renal; above 100 µM with HOP-92 NSCLC; 62.1 µM in the assay with RPMI-8226 leukemia; above 100 µM with K-562 leukemia; above 100 µM in the assay on HT29 colon; above 100 µM with HL-60(TB) leukemia. Moreover, the TGI with NCI-H23 lung, in the assay on OVCAR-3 ovarian, in the assay on HCT-15 colon and in the assay with DMS 273 small cell lung was above 100 µM throughout.

`CN(C)CCNC(=O)c1cccc2[nH]c(-c3ccccc3)nc12`: the TGI with CAKI-1 renal is 92.9 µM; in the assay on HOP-92 NSCLC, 42.1 µM; with RPMI-8226 leukemia, 91.5 µM; in the assay with K-562 leukemia, above 100 µM; with HT29 colon it was 57 µM; with HL-60(TB) leukemia it was 54.3 µM. Besides, the TGI in the assay on NCI-H23 lung was 32.6 µM; with OVCAR-3 ovarian, 50.3 µM; with HCT-15 colon, 34.5 µM; in the assay with DMS 273 small cell lung, 39.6 µM.

On to `CC(C)=CC(=O)Cc1nc2cc(C)c(C)cc2[nH]c1=O`, for which the TGI with CAKI-1 renal is above 100 µM; with HOP-92 NSCLC it was 99.7 µM; in the assay on RPMI-8226 leukemia, above 100 µM; in the assay with K-562 leukemia, above 100 µM; in the assay on HT29 colon, above 100 µM; in the assay with HL-60(TB) leukemia it was above 100 µM. The TGI with NCI-H23 lung, in the assay with OVCAR-3 ovarian, in the assay on HCT-15 colon and in the assay with DMS 273 small cell lung was above 100 µM in each case.
